Test results reported in PubChem BioAssay (NCI).
Several values for one entry are separate records, joined by “and”; a condition that tells them apart may be missing. Identical values can stand only once.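 Compound exposure: 48 hours, 5 concentrations, 96-well plates. Here, GI50 denotes the concentration required for 50% inhibition of growth. TGI marks complete inhibition of growth.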

Columns and labels:
Assay in all cases: NCI tumour cell line growth inhibition, 48 h
COLO 205 colon = test system: COLO 205 colon
HT29 colon = test system: HT29 colon
EKVX NSCLC = test system: EKVX NSCLC
KM12 colon = test system: KM12 colon
HS 578T breast = test system: HS 578T breast
IGROV1 ovarian = test system: IGROV1 ovarian
UO-31 renal = test system: UO-31 renal
OVCAR-3 ovarian = test system: OVCAR-3 ovarian

SMILES	GI50 (COLO 205 colon)	TGI (COLO 205 colon) [µM]	GI50 (HT29 colon)	TGI (HT29 colon) [µM]	GI50 (EKVX NSCLC) [nM]	TGI (EKVX NSCLC) [µM]	GI50 (KM12 colon)	TGI (KM12 colon)	GI50 (HS 578T breast)	TGI (HS 578T breast) [µM]	GI50 (IGROV1 ovarian)	TGI (IGROV1 ovarian) [µM]	GI50 (UO-31 renal)	TGI (UO-31 renal) [µM]	GI50 (OVCAR-3 ovarian)	TGI (OVCAR-3 ovarian) [µM]
O=C(CC1(O)C(=O)Nc2ccc(Cl)cc21)c1ccc(C(=O)NCC2CCC3(CC2)OOC2(CCCCC2)OO3)cc1 (configuration not stated)	3.09 µM	12.3	3190 nM	11.2	1590	4.3	1770 nM	5.22 µM	3.44 µM	> 28.2	482 nM	2.89	–	–	–	–
O=C(/C=C/c1ccco1)Nc1ncc(Cc2cc(Cl)ccc2Cl)s1	–	–	38 nM	> 100	161	> 100	41.9 nM	> 100 µM	0.0427 µM	> 100	80.7 nM	> 100	0.162 µM	> 100	0.0294 µM	0.122
CCN(CC)c1ccc(N=Nc2ccc(-c3nc4cccnc4s3)cc2)cc1	–	> 100	–	> 100	–	> 100	–	> 100 µM	–	–	–	> 100	–	> 100	–	> 100
COc1ccc([C@@H]2[C@@H](Cl)C(=O)N2c2cc(OC)c(OC)c(OC)c2)cc1C	0.0386 µM	0.159	32.7 nM	11.9	65.9	> 100	41.9 nM	17.1 µM	0.049 µM	77.4	84.9 nM	72.4	0.172 µM	47.6	0.0241 µM	0.0581
O=C(CC(C(=O)c1ccsc1)c1cccs1)c1cccs1 (configuration not stated)	–	> 100	–	> 100	–	> 100	–	–	–	–	–	> 100	–	92.7	–	> 100
O=C(NOCCO)c1ccc2cncn2c1Nc1ccc(I)cc1F	0.00235 µM and < 0.01 µM	0.803	3.07 nM and < 10 nM	> 100	62.9	> 10	26.8 nM and 18 nM	> 100 µM	> 10 µM and 60.6 µM	> 100	13 nM and 53.2 nM	> 100	0.0596 µM and 0.0455 µM	> 100	> 10 µM and 32.7 µM	> 100
CSc1ccc(-c2cn3ccsc3n2)cc1	14.4 µM	> 100	33300 nM	> 100	36200	> 100	24400 nM	> 100 µM	9.5 µM	> 65.7	5730 nM	> 75.5	7.95 µM	> 100	> 28.6 µM	> 100
COc1ccccc1NC(=O)c1sc2ncn(CCOc3ccccc3)c(=O)c2c1C	2.88 µM	> 50	–	–	5080	> 50	1430 nM	> 50 µM	1.37 µM	4.1	1900 nM	> 50	12.5 µM	> 50	2.91 µM	> 50
CCOC(=O)c1c(CN2CCCCC2)nc2ccc(Cl)cc2c1-c1ccccc1	22.9 µM	58.3	18800 nM	54.2	25200	69.2	27400 nM	78.3 µM	27.1 µM	75.1	24000 nM	> 100	20.6 µM	53.9	17.7 µM	38.1
O=C1OC(c2ccccc2)=N/C1=C\c1ccccc1	> 100 µM and 37.2 µM	> 100	> 100000 nM and 32800 nM	> 100	–	> 100	–	> 100 µM and 62.2 µM	–	> 100	–	> 100	–	> 100	–	> 100
CC[C@H](C)[C@H](NC(=O)CN(C)C)C(=O)N(C)[C@H](C[C@@H](OC(C)=O)c1nc(C(=O)NC23C4C5C2C2C3C4C52C(=O)OC)cs1)C(C)C (some centres not stated)	0.247 µM	5.53	133 nM	> 33.2	2540	> 33.2	740 nM	> 33.2 µM	0.176 µM	> 33.2	428 nM	> 33.2	3.6 µM	> 33.2	0.113 µM	1.31
C=C(CN1CCN(c2cc(C(F)(F)F)cc(C(F)(F)F)c2)CC1)c1ccc(C(=O)Nc2ccccc2N)cc1	7.11 µM	52.6	1910 nM	4.75	11700	58.6	3470 nM	21.8 µM	4.81 µM	35.6	4200 nM	27.3	5.57 µM	> 100	3.18 µM	21.2
COC(=O)c1sc(-n2cnc3cc(OC)c(OC)cc32)cc1OCc1ccccc1C(F)(F)F	> 25 µM	> 25	> 25000 nM	> 25	> 25000	> 25	> 25000 nM	> 25 µM	6.2 µM	> 25	> 25000 nM	> 25	> 25 µM	> 25	> 25 µM	> 25
CO[C@H]1C[C@H](O[C@H]2CC[C@@]3(C)[C@H](CC[C@@H]4[C@@H]3CC[C@]3(C)[C@@H](C5=CC(=O)OC5)CC[C@]43O)C2)O[C@H](C)[C@H]1O	–	0.235	–	0.0552	–	0.0148	–	0.371 µM	–	–	–	0.113	–	0.0217	–	< 0.0194
NS(=O)(=O)c1cccc(Nc2cc(-c3ccc(F)cc3)[nH]n2)c1	> 25 µM	> 25	> 25000 nM	> 25	> 25000	> 25	8220 nM	> 25 µM	> 20.8 µM	> 25	19300 nM	> 25	14.6 µM	> 25	19.5 µM	> 25
CC(C)(C)n1cc(-c2ccnc(NCCCNS(=O)(=O)c3cccc4ccccc34)c2)c(-c2cccc(O)c2)n1	1.89 µM	3.72	–	–	2130	6.32	2340 nM	5.42 µM	1.89 µM	4.8	2140 nM	4.68	2.26 µM	7.97	2.06 µM	4.22
